From US10550102B2, “Indane and indoline derivatives and the use thereof as soluble guanylate cyclase activators” (NOVARTIS AG, priority 2014, dated 2020)

Biological target: soluble guanylate cyclase (human GUCYA3 and GUCYB3) overexpressed in CHO cells (Homo sapiens (Human), UniProt Q02153)
Assay: CHO cellular assay (cGMP production, Cisbio cGMP HTRF kit)
Type: cell-based
Settings: CHO GUCY clone 8E10, cGMP production, assay buffer with 1 mM IBMX and 20 uM ODQ, 1 h room temperature; minimum quantification limit 0.5 nM (listed 0.5 nM means ≤0.5 nM)
Procedure, shortened: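 Stable CHO-K1 clone 8E10 expressing human sGC (GUCYA3/GUCYB3), 3000 cells/well, exposed 1 h at room temperature to activators in HBSS, 0.1% BSA, 1 mM IBMX, 20 uM ODQ, 0.5% DMSO final. cGMP was measured by HTRF and interpolated from a standard curve. EC50 came from a 4-parameter sigmoidal fit.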

Chain of soluble guanylate cyclase (human GUCYA3 and GUCYB3) overexpressed in CHO cells (Q02108 whole entry partner): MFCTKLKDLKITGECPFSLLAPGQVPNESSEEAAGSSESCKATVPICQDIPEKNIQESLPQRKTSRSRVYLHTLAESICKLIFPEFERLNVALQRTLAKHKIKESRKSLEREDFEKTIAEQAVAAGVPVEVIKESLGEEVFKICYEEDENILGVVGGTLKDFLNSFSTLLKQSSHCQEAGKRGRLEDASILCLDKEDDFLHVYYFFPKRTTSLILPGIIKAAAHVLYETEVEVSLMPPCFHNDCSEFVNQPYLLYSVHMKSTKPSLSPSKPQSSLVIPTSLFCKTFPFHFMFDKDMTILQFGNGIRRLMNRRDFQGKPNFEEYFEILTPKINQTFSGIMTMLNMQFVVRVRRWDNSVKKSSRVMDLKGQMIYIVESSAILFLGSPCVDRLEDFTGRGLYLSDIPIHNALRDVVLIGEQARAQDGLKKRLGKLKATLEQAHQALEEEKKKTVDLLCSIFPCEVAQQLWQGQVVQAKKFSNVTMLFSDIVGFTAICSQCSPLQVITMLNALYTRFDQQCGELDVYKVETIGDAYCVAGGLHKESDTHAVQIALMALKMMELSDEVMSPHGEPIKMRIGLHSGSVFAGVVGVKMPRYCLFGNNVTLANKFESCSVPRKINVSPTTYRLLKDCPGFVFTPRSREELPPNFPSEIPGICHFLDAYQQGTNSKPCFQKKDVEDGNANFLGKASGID
Chain of soluble guanylate cyclase (human GUCYA3 and GUCYB3) overexpressed in CHO cells (Q02153 whole entry): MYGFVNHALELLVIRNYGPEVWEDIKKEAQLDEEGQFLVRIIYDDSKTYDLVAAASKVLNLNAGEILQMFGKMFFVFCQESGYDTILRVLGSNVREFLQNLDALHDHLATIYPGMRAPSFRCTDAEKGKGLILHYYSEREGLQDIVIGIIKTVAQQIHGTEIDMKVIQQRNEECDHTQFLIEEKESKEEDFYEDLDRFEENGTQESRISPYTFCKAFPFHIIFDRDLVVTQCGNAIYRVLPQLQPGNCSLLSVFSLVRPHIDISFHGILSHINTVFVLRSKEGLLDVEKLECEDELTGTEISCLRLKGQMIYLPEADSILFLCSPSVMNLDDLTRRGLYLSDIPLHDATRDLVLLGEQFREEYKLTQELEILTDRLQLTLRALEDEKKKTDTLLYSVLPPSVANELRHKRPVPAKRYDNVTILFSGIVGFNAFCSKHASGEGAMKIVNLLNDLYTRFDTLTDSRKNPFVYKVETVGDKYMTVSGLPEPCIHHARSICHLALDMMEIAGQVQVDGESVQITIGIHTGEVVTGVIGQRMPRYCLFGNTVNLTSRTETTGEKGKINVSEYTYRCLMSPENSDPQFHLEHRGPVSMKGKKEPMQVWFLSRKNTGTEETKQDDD

EC50 [nM] | SMILES
≤ 0.5 | CCc1cc(CN2CC(C)c3cccc(-c4cccc(-n5ncc(C(=O)O)c5C(F)(F)F)n4)c32)ccc1C1CCN(C(=O)C2CC2)CC1 (single isomer, unassigned; (-)) [Example 19b, (−)-1-(6-(1-(4-(1-(Cyclopropanecarbonyl)piperidin-4-yl)-3-ethylbenzyl)-3-methylindolin-7-yl)pyridin-2-yl)-5-(trifluoromethyl)-1H-pyrazole-4-carboxylic Acid]
≤ 0.5 | CCc1cc(CN2CC(C)c3cccc(-c4cccc(-n5ncc(C(=O)O)c5C)n4)c32)ccc1C1CCN(C(=O)C2CC2)CC1 (single isomer, unassigned; (-)) [(−)-20-3, (−)-1-(6-(1-(4-(1-(Cyclopropanecarbonyl)piperidin-4-yl)-3-ethylbenzyl)-3-methylindolin-7-yl)pyridin-2-yl)-5-methyl-1H-pyrazole-4-carboxylic acid]
15 | O=C(O)c1cnn(-c2cccc(-c3cccc4c3C(Oc3ccc(C5CCN(C(=O)C6CC6)CC5)cc3C(F)(F)F)CC4)n2)c1C(F)(F)F (single isomer, unassigned; enantiomer-1) [61. b). (enantiomer-1), (+)- or (−)-1-(6-(3-(4-(1-(Cyclopropanecarbonyl)piperidin-4-yl)-2-(trifluoromethyl)phenoxy)-2,3-dihydro-1H-inden-4-yl)pyridin-2-yl)-5-(trifluoromethyl)-1H-pyrazole-4-carboxylic acid]
